Reference: US10821093B2, “Antibacterial microelement chelates and the use thereof in animal feeds” (priority 2012, dated 2020)
Like-named read-outs stand apart in the source and are kept apart here. Marks after values point to notes of the source that are not given here.

Legend:
[1] = test system: Clostridium perfringens
[2] = test system: Lawsonia intracellularis
Experimental: Experimental feeding was performed with growing pigs, under pilot environmental conditions with the animal paired methods on a stock infected with the pathogen Lawsonia intracellularis. The control group received the usual antibiotic supplement mixed into the feed.

[3] = test system: Salmonella enterica; assay: MIC, liquid culture dilution (single chelates and cross-dilution combinations); assay type: cell-based, Salmonella enterica subp. Enterica serovar enteritidis
[4] = test system: Brachyspira hyodysenteriae; assay: MIC (single chelates and combinations)
[5] = test system: Escherichia coli; assay: MIC, liquid culture dilution (single chelates and cross-dilution combinations); assay type: cell-based
[6] = test system: Clostridium perfringens; assay type: cell-based
[7] = test system: LACTIC ACID PRODUCERS; assay: MIC, liquid culture dilution; assay type: cell-based
[8] = test system: Saccharomyces cerevisiae; assay: MIC, liquid culture dilution; assay type: cell-based
[9] = test system: Arcanobacterium piogenes; assay: MIC; assay type: cell-based
[10] = test system: Micrococcus luteus; assay: MIC, liquid culture dilution; assay type: cell-based
[11] = test system: LSE; assay: Minimal lethal concentration (CID); assay type: cell-based, Saccharomyces cerevisiae
Experimental: (§1) It is the concentration of the active ingredient that causes the complete death of the microbes. Under sterile conditions within a laminar box, a dilution series was prepared from the liquid culture mediums that were incubated for 24 hours, then from the dilution series 100 μl each was placed onto agar dishes and spread with a sterile glass rod. The incubation period is 24 hours under conditions favorable for the growth of the microbe, then the number of colonies on the agar dishes are counted.
(§2) In the case where no colonies are visible on the culture medium after the incubation, it indicates the microbe killing effect (CID) of the trace element chelate. The number of countable colonies grown on the agar dishes gives the actual MIC value of the given trace element chelate.

[12] = test system: Lactococcus; assay: Minimal lethal concentration (CID); assay type: cell-based
Experimental: as §1, §2

[13] = test system: Clostridium; assay: Minimal lethal concentration (CID); assay type: cell-based
Experimental: as §1, §2

[14] = test system: Staphylococcus aureus; assay: MIC, liquid culture dilution; assay type: cell-based
[15] = test system: Streptococcus agalactiae; assay: MIC, liquid culture dilution; assay type: cell-based
[16] = test system: S. tiphy; assay type: cell-based
[17] = test system: Salmonella; assay: Minimal lethal concentration (CID); assay type: cell-based
Experimental: as §1, §2

[18] = test system: Clostridium perfringens; details: treatment group III
[19] = test system: E. coli
From the text: The experimental animals had E. coli infection. The control group received the standard antibiotic supplement in the feed to control the E. coli infection.

[20] = 1 kg/t in feed, 101 days of fattening
[21] = vs antibiotic-supplemented control

| Compound | Minimal inhibitory concentration (MIC) [3] [ppm] | Minimal inhibitory concentration (MIC) [4] [ppm] | Minimal inhibitory concentration (MIC) [5] [ppm] | Minimal inhibitory concentration (MIC) [6] [ppm] | Minimal inhibitory concentration (MIC) [7] [ppm] | Minimal inhibitory concentration (MIC) [8] [ppm] | other results |
| --- | --- | --- | --- | --- | --- | --- | --- |
| NCC(=O)[O][Cu]([NH3+])([NH3+])[O]C(=O)CN [copper diammonium bis-glycinate] |  |  |  |  |  |  | Relative feed utilization ([1]; 1.0 kg/t in feed, 42 days): 1.89 kg/kg; Total feed use ([1]; 1.0 kg/t in feed, 42 days): 59 880 kg; Total living weight ([1]; 1.0 kg/t in feed, 42 days): 32 395 kg; Total weight gain ([1]; 1.0 kg/t in feed, 42 days): 31 681 kg; Chicken shipped ([1]; 1.0 kg/t in feed, 42 days, 17 100 chicks at start): 16 238; Mean slaughter weight ([1]; 1.0 kg/t in feed, 42 days, difference significant at P ≤ 0.001): 1995*** g; Faeces, signs of diarrhea ([1]; experimental group, observation): no signs of a change indicating diarrhea was visible; Adverse side effects ([1]; feeding the experimental composition, 1.0 kg/t): No adverse side effects were observed; Chicken shipped, difference to control group ([1]; vs unsupplemented control): 4; Relative feed utilization, difference to control group (less feed per unit live weight gain) ([1]; vs unsupplemented control): 3.6%; Total feed use, difference to control group ([1]; vs unsupplemented control): 620 kg; Added weight [2, 20]: 76.15 kg; Average slaughter weight [2, 20]: 107.01 kg; Feed utilization [2, 20]: 3.10 kg/kg; Added weight higher than control [2, 21]: 6.2%; Feed utilization better than control [2, 21]: 6.8%; Slaughter weight higher than control [2, 21]: 1.6% |
| C[C@H](N)C(=O)[O-].C[C@H](N)C(=O)[O-].O.[Zn+2] [Zn(H2O) bis-alaninate] | 110 | >4000 | 100 | >4000 |  |  |  |
| copper mono-glycinate chelate | 400 | 90 | 400 | 50 | 800 | 800 | Minimal inhibitory concentration (MIC) [9]: 92 ppm; Minimal inhibitory concentration (MIC) [10]: 200 ppm; CID concentration [11]: 800 ppm; CID concentration [12]: 800 ppm; CID concentration ([13]; Clostridium): 200 ppm; CID value relative to MIC value ([13]; Clostridium strains): twice as much |
| Zn(Glycine)2 [Zinc (H2O) bis-glycinate] | 220 | >4000 | 120 | 180 | 800 | 500 | Minimal inhibitory concentration (MIC) [10]: 60 ppm; Minimal inhibitory concentration (MIC) [14]: 4 ppm; Minimal inhibitory concentration (MIC) [15]: 29 ppm |
| NCC(=O)O.O=S(=O)([O-])[O-].[Zn+2] [Zinc mono-glycinate, zinc mono-glycinate chelate] | 100 | >4000 | 100 | 210 | 800 | 800 | CID concentration [16]: 3000 ppm; Minimal inhibitory concentration (MIC) [10]: 60 ppm; CID concentration [11]: 800 ppm; CID concentration [12]: 800 ppm; CID concentration ([17]; Salmonella): 3000 ppm; CID value relative to MIC value ([17]; Salmonella strains): 30 fold; Minimal inhibitory concentration (MIC) [14]: 40 ppm; Minimal inhibitory concentration (MIC) ([14]; listed as Zn mono-glycinate): 20 ppm; Minimal inhibitory concentration (MIC) [15]: 80 ppm; Minimal inhibitory concentration (MIC) ([15]; listed as Zn mono-glycinate): 40 ppm |
| NCC(=O)[O-].[Ag+] [Ag glycinate] |  |  |  |  |  |  | Minimal inhibitory concentration (MIC) [9]: 184 ppm |
| Manganese mono-glycinate | 300 |  | 300 |  | 1000 | 1000 | Minimal inhibitory concentration (MIC) [10]: 100 ppm |
| [NH3+][Cu]([NH3+])([O]C(=O)C(O)CC(=O)O)[O]C(=O)C(O)CC(=O)O (stereo not drawn) [Cu diammine bis-malate] |  | 143 | 262 | 65 |  |  | Minimal inhibitory concentration (MIC) [14]: 262 ppm; Minimal inhibitory concentration (MIC) [15]: 131 ppm |
| O=C(O)CN1CCN(CC(=O)O)CC(=O)[O][Cu][O]C(=O)C1 [Cu ethylenediamine tetraacetic acid] |  | 320 |  | 160 |  |  |  |
| Zn malate [Zn(H2O)-bis-malate] | 120 | 4400 | 90 | 360 | 500 | 600 | Minimal inhibitory concentration (MIC) [14]: 160 ppm; Minimal inhibitory concentration (MIC) [15]: 180 ppm |
| Iron mono-glycinate | 450 |  | 350 |  | 1000 | 1000 | Minimal inhibitory concentration (MIC) [10]: 100 ppm |
| O=C([O-])CN(CCN(CC(=O)O)CC(=O)O)CC(=O)[O-].[Zn+2] [Zn ethylenediamine-tetraacetic acid] |  | 450 |  | 1000 |  |  |  |
| Zn diaminonitrolo triacetic acid |  | 600 |  | 400 |  |  |  |
| [NH3+][Cu]1([NH3+])[O]C(=O)CN(CC(=O)O)CCN(CC(=O)O)CC(=O)[O]1 [Cu diamino ethylenediamine tetraacetic acid] |  | 80 |  | 20 |  |  | Egg yield increase compared to the negative control group [18]: 6.7%; Egg yield increase compared to the positive control group [18]: 22.4%; Total eggs ([18]; 36 hens, C. perfringens inoculated): 1868 pc.; No. of eggs/hen ([18]; C. perfringens inoculated): 51.80; Total egg weight ([18]; C. perfringens inoculated): 125.70 kg; Weight of egg ([18]; g/pc.): 67.2 g |
| O.O=C(O)CC(O)C(=O)[O-].O=C(O)CC(O)C(=O)[O-].[Cu+2] (stereo not drawn) [Cu(H2O) bis-malate] | 210 | 88 | 120 | 50 |  |  |  |
| O.O.O=C([O-])CN(CCN(CC(=O)[O-])CC(=O)O)CC(=O)O.[Cu+2] [Cu(H2O)2-ethylenediamine tetraacetic acid] |  | 100 |  | 60 |  |  |  |
| O=C(O)CC(O)C(=O)[O-].O=C(O)CC(O)C(=O)[O-].[Zn+2] (stereo not drawn) [Zn bis-malate] | 360 |  | 280 |  | 600 | 600 |  |
| Cu diaminonitrolo triacetic acid |  | 200 |  | 120 |  |  |  |
| [NH2][Zn]([NH2])([O]C(=O)C(O)CC(=O)O)[O]C(=O)C(O)CC(=O)O (stereo not drawn) [Zn diammine bis-malate, Zn diammonium malate] | 120 | 2315 | 80 | 340 | 500 | 500 | Minimal inhibitory concentration (MIC) [9]: 21 ppm; Minimal inhibitory concentration (MIC) [14]: 80 ppm; Minimal inhibitory concentration (MIC) [15]: 20 ppm |
| zinc ammonium maleinate |  |  |  |  |  |  | Daily weight gain ([19]; 38 days): 391 g; Feed utilization ([19]; 38 days): 2.04 kg/kg; Body weight at the end of the experiment ([19]; 38 days, initial weight 9.19 kg): 24.05 kg; Average daily weight gain higher than control group [19, 21]: 45%; Feed utilization better than control group [19, 21]: 13% |
| NCC(=O)[O-].NCC(=O)[O-].O.[Cu+2] [Copper (H2O) bis-glycinate] | 400 | 96 | 300 | 100 | 800 | 800 | Minimal inhibitory concentration (MIC) [9]: 32 ppm; Minimal inhibitory concentration (MIC) [10]: 60 ppm; Minimal inhibitory concentration (MIC) [14]: 5.3 ppm; Minimal inhibitory concentration (MIC) [15]: 171 ppm |
